# Laboratory results reported in ChEMBL document CHEMBL1154782, “Discovery of Trp-His and His-Arg analogues as new structural classes of short antimicrobial peptides” (J Med Chem, 2009).
# Where a SMILES comes first, the peptide text is derived from it.
# Legend:
# Staphylococcus aureus [1] = assay: Antibacterial activity against methicillin-resistant Staphylococcus aureus DSM 50128509; type: functional, organism-based
# Escherichia coli [2] = assay: Antibacterial activity against Escherichia coli ATCC 35218; type: functional, organism-based
# Pseudomonas aeruginosa = assay: Antibacterial activity against Pseudomonas aeruginosa ATCC 9027 after 15 to 18 hrs under aerobic condition by modified broth microdilution method; type: functional
# Klebsiella pneumoniae [3] = assay: Antibacterial activity against Klebsiella pneumoniae ATCC 700603 after 15 to 18 hrs under aerobic condition by modified broth microdilution method; type: functional
# Escherichia coli [4] = assay: Antibacterial activity against Escherichia coli ATCC 35218 after 15 to 18 hrs under aerobic condition by modified broth microdilution method; type: functional
# Staphylococcus aureus [5] = assay: Antibacterial activity against methicillin-resistant Staphylococcus aureus DSM 50128509 after 15 to 18 hrs under aerobic condition by modified broth microdilution method; type: functional
# L929 = assay: Cytotoxicity against mouse L929 cells up to 200 ug/mL after 5 days by MTT assay; type: cell-based; settings: l929, 120 h
# [6] = test system: Staphylococcus epidermidis; assay: Antibacterial activity against methicillin-resistant Staphylococcus epidermidis DSM 50160384; type: functional, organism-based
# Candida albicans [7] = assay: Antifungal activity against Candida albicans ATCC 10231; type: functional, organism-based
# Candida albicans [8] = assay: Antifungal activity against Candida albicans ATCC 10231 after 15 to 18 hrs under aerobic condition by modified broth microdilution method; type: functional
# [9] = test system: Staphylococcus epidermidis; assay: Antibacterial activity against methicillin-resistant Staphylococcus epidermidis DSM 50160384 after 15 to 18 hrs under aerobic condition by modified broth microdilution method; type: functional
# Klebsiella pneumoniae [10] = assay: Antibacterial activity against Klebsiella pneumoniae ATCC 700603; type: functional, organism-based
Structure (SMILES),IC50 (Staphylococcus aureus [1]) [µg/mL],IC50 (Escherichia coli [2]) [µg/mL],MIC (Pseudomonas aeruginosa) [µg/mL],MIC (Klebsiella pneumoniae [3]) [µg/mL],MIC (Escherichia coli [4]) [µg/mL],MIC (Staphylococcus aureus [5]) [µg/mL],Activity (L929),IC50 [6] [µg/mL],IC50 (Candida albicans [7]) [µg/mL],MIC (Candida albicans [8]) [µg/mL],MIC [9] [µg/mL],IC50 (Klebsiella pneumoniae [10]) [µg/mL]
COC(=O)[C@H](Cc1c[nH]c(C2CCCCC2)n1)NC(=O)[C@H](Cc1c[nH]c2ccccc12)NC(=O)OC(C)(C)C,14,20.9,> 200,> 200,200,200,Non-toxic,6.29,17.7,200,50,
N[C@@H](Cc1c[nH]c2ccccc12)C(=O)N[C@@H](Cc1c[nH]c(C2CCC2)n1)C(=O)NCc1ccccc1,27.1,22.5,> 200,> 200,200,100,Non-toxic,8.51,10.3,100,50,
COC(=O)[C@H](Cc1c[nH]c(C23CC4CC(CC(C4)C2)C3)n1)NC(=O)[C@H](Cc1c[nH]c2ccccc12)NC(=O)OC(C)(C)C,1.69,6.59,> 200,> 200,100,20,Non-toxic,4.03,26.6,200,50,
NC[C@@H]1O[C@H](O[C@H]2[C@@H](O)[C@H](O[C@@H]3[C@@H](O)[C@H](N)C[C@H](N)[C@H]3O[C@H]3O[C@H](CN)[C@@H](O)[C@H](O)[C@H]3N)O[C@@H]2CO)[C@H](N)[C@@H](O)[C@@H]1O [FRAMYCETIN],,,,,,,,,,,,0.6
COC(=O)[C@H](Cc1c[nH]c(C2CCC2)n1)NC(=O)[C@@H](N)Cc1c[nH]c2ccccc12,9.54,9.48,> 200,> 200,200,200,Non-toxic,14.5,18.2,200,200,
CC(C)(C)OC(=O)N[C@@H](Cc1c[nH]c(C2CCC2)n1)C(=O)N[C@@H](CCCNC(=N)N)C(=O)NCc1ccccc1,,,> 200,200,> 200,> 200,Non-toxic,19.3,,> 200,200,20.8
COC(=O)[C@H](CCCNC(=N)N)NC(=O)[C@@H](N)Cc1c[nH]c(C2CCC2)n1,9.28,15.3,> 200,> 200,200,200,Non-toxic,6.66,14,200,100,
COC(=O)[C@H](Cc1c[nH]c(C2CCCCC2)n1)NC(=O)[C@@H](N)Cc1c[nH]c2ccccc12,10.1,,> 200,200,> 200,100,Non-toxic,12.5,,> 200,200,29.4
COC(=O)[C@H](Cc1c[nH]c(C(C)C)n1)NC(=O)[C@@H](N)Cc1c[nH]c2ccccc12,13.1,12.2,> 200,> 200,200,200,Non-toxic,,15.6,200,> 200,
CC(C)(C)OC(=O)N[C@@H](Cc1c[nH]c(C(C)(C)C)n1)C(=O)N[C@@H](CCCNC(=N)N)C(=O)NCc1ccccc1,17.5,12,> 200,> 200,100,200,Non-toxic,,33.1,200,> 200,
COC(=O)[C@H](Cc1c[nH]cn1)NC(=O)[C@@H](N)Cc1c[nH]c2ccccc12 (H-Trp-His-OMe),,18.5,> 200,> 200,200,> 200,Non-toxic,,20.6,200,> 200,
